From ChEMBL document CHEMBL1201862, “PubChem BioAssay data set” (2004)
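How tested: cells in 96-well plates exposed to compound for 48 hours at five concentrations. At the GI50, growth is halved.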 The source made the active and inactive calls. No stated cut-off is given here; in the data, active = GI50 up to about 1.1 µM and inactive = higher.

Experiments:
Assay in all cases: NCI anticancer screen, dose series, 48 h
SF-268 = tested on: SF-268
Malme-3M = tested on: Malme-3M
IGROV-1 = tested on: IGROV-1
NCI-H460 = tested on: NCI-H460
MDA-N = tested on: MDA-N
MDA-MB-435 = tested on: MDA-MB-435
NCI-H23 = tested on: NCI-H23
786-0 = tested on: 786-0
KM12 = tested on: KM12
A498 = tested on: A498
BT-549 = tested on: BT-549
SW-620 = tested on: SW-620
LOX IMVI = tested on: LOX IMVI
NCI-H522 = tested on: NCI-H522
ACHN = tested on: ACHN
HCT-15 = tested on: HCT-15
SR = tested on: SR
UACC-62 = tested on: UACC-62
K562 = tested on: K562

Structure (SMILES)	GI50 (SF-268)	GI50 (Malme-3M)	GI50 (IGROV-1)	GI50 (NCI-H460)	GI50 (MDA-N)	GI50 (MDA-MB-435)	GI50 (NCI-H23)	GI50 (786-0)	GI50 (KM12)	GI50 (A498)	GI50 (BT-549)	GI50 (SW-620)	GI50 (LOX IMVI)	GI50 (NCI-H522)	GI50 (ACHN)	GI50 (HCT-15)	GI50 (SR)	GI50 (UACC-62)	GI50 (K562)
CC(C)=C[C@H]1CCC2(OCCO2)[C@]1(C)CO	> 100 µM (inactive)	> 100 µM (inactive)	> 100 µM (inactive)	> 100 µM (inactive)	> 100 µM (inactive)	> 100 µM (inactive)	> 100 µM (inactive)	> 100 µM (inactive)	> 100 µM (inactive)	> 100 µM (inactive)	> 100 µM (inactive)	> 100 µM (inactive)	> 100 µM (inactive)	> 100 µM (inactive)	> 100 µM (inactive)	> 100 µM	–	–	–
Cn1c(=O)oc2nc(-c3ccccc3)cc(C(F)(F)F)c21	> 100 µM (inactive)	–	> 100 µM (inactive)	> 100 µM (inactive)	3.23 µM (inactive)	15.9 µM (inactive)	> 100 µM (inactive)	> 100 µM (inactive)	9.93 µM (inactive)	39.2 µM (inactive)	> 100 µM (inactive)	> 100 µM (inactive)	–	> 100 µM (inactive)	> 100 µM (inactive)	> 100 µM	44.6 µM (inactive)	> 100 µM (inactive)	–
Cc1cc2c(cc1C(=O)c1ccc(N)cc1)OCO2	31.2 µM (inactive)	33.8 µM (inactive)	33.5 µM (inactive)	33.7 µM (inactive)	12.4 µM (inactive)	7.82 µM (inactive)	> 100 µM (inactive)	34.6 µM (inactive)	21.4 µM (inactive)	–	48.8 µM (inactive)	34.8 µM (inactive)	–	19.1 µM (inactive)	> 100 µM (inactive)	30.4 µM	5.08 µM (inactive)	31 µM (inactive)	24.9 µM (inactive)
O=C(NN=C1NCCN1)c1ccco1	> 100 µM (inactive)	> 100 µM (inactive)	> 100 µM (inactive)	> 100 µM (inactive)	> 100 µM (inactive)	> 100 µM (inactive)	> 100 µM (inactive)	> 100 µM (inactive)	> 100 µM (inactive)	–	> 100 µM (inactive)	> 100 µM (inactive)	> 100 µM (inactive)	> 100 µM (inactive)	> 100 µM (inactive)	> 100 µM	> 100 µM (inactive)	> 100 µM (inactive)	> 100 µM (inactive)
COc1cc(COC(=O)N(CC(=O)O)c2ccccc2)c([N+](=O)[O-])cc1OC	> 100 µM (inactive)	> 100 µM (inactive)	> 100 µM (inactive)	> 100 µM (inactive)	> 100 µM (inactive)	> 100 µM (inactive)	> 100 µM (inactive)	> 100 µM (inactive)	> 100 µM (inactive)	62.7 µM (inactive)	> 100 µM (inactive)	> 100 µM (inactive)	–	–	> 100 µM (inactive)	> 100 µM	> 100 µM (inactive)	> 100 µM (inactive)	> 100 µM (inactive)
Cc1cc(N(CCC#N)CCC#N)ccc1C(/N=N\c1ccc([N+](=O)[O-])cc1)=N\NC(=O)c1cc(Cl)ccc1O	19.9 µM (inactive)	28.1 µM (inactive)	24.2 µM (inactive)	25.1 µM (inactive)	51.3 µM (inactive)	64.9 µM (inactive)	15.6 µM (inactive)	47.8 µM (inactive)	27.7 µM (inactive)	26.7 µM (inactive)	34.8 µM (inactive)	–	–	9.35 µM (inactive)	27.8 µM (inactive)	29.6 µM	24.3 µM (inactive)	22.9 µM (inactive)	35.2 µM (inactive)
Cc1ccc(C2=CC(=O)OC(C[P+](c3ccccc3)(c3ccccc3)c3ccccc3)(c3ccccc3)O2)cc1 (stereo unspecified)	18.5 µM (inactive)	16.1 µM (inactive)	13.7 µM (inactive)	17.8 µM (inactive)	14.7 µM (inactive)	16.2 µM (inactive)	13.6 µM (inactive)	19.3 µM (inactive)	17.7 µM (inactive)	15.1 µM (inactive)	26.7 µM (inactive)	–	–	12 µM (inactive)	21.3 µM (inactive)	20 µM	15.6 µM (inactive)	14.8 µM (inactive)	23.3 µM (inactive)
COc1cc2c(cc1O)CC[n+]1cc3c(OC)c(OC)ccc3cc1-2	> 100 µM (inactive)	59.6 µM (inactive)	> 100 µM (inactive)	> 100 µM (inactive)	> 100 µM (inactive)	> 100 µM (inactive)	62.5 µM (inactive)	> 100 µM (inactive)	76.7 µM (inactive)	> 100 µM (inactive)	47.3 µM (inactive)	> 100 µM (inactive)	> 100 µM (inactive)	> 100 µM (inactive)	> 100 µM (inactive)	> 100 µM	–	> 100 µM (inactive)	75 µM (inactive)
